# US20100178243A1, “Novel method of stabilizing diagnostic and therapeutic compounds in a cationic carrier system” (MediGene AG, priority 2002, published 2010)
# System: A-375 Melanoma
# Experiment: Therapeutic efficacy of LipoCam in A-375 melanoma of nude mice
# Assay type: in vivo
# Details: iv, three times a week for three weeks, equitoxic doses; s.c. A-375 tumors; FIG. 11
# Protocol: NMRI-nude mice were purchased from Elevage Janvier and housed in isolated ventilated cages under save environmental conditions (SPF facility, 22° C., 30-70% humidity, 12 h light/dark cycle) with food and water ad libitum. Experimental design was reviewed and approved by local government.
# Tumor cells (A-375 human melanoma cell line, ATCC Nr.: CRL-1619) were grown as described in the data sheet supplied by ATCC. Tumor cells (5×10^6 in PBS) were inoculated s.c. in the right dorsal flank of mice in a volume of 50 μl on day 0.
# Mice were assigned to the experimental groups (8 animals per cage), housed and handled (including monitoring of the body weight gain) at least five days before tumor inoculation (=day −6 to 0). […] Equitoxic doses of the compounds were determined in separate experiments, where toxicity was evaluated based on haematological parameters, body weight and animal clinical observations. […]
# Animals were clinically monitored during the whole experiment and for at least one week after treatment was finished. […] The tumor dimensions were measured by calliper and the tumor size was calculated according to the following formula: V=πLW^2/6 (L=greatest length, W=width of perpendicular axis). […] The number of red and white blood cells and platelets were determined using an automated cell counter (Abbott Cell Dyn 3500).
compound,measurement,value
CC[C@@](O)(C(=O)[O-])c1cc2n(c(=O)c1CO)Cc1cc3ccccc3nc1-2.[Na+] [CPT-Na-Carboxylate],anti-tumor effect (in words),only a retardation as compared to the control group
